The record followed here is PubChem BioAssay AID1320 (NMMLSC, 2008).

Active and inactive are the calls of the source. How the calls were made is not given here.

What is called EC50 is the concentration giving half of the maximal effect.

For one assay, the target named is Bcl-2-related protein A1 (Homo sapiens) (UniProt Q16548). In words: inhibitors of Bim binding to Bfl-1, dose response, biochemical, multiplexed, bead-based flow cytometry (AID 1320). On percent span (inhibition): test concentration not given here. Particulars: Bim peptide-Bfl-1 binding, fluorescence. (A flow cytometer gives signals particle by particle.)
Sequence of Bcl-2-related protein A1 (Homo sapiens) (Q16548 whole entry, looked up): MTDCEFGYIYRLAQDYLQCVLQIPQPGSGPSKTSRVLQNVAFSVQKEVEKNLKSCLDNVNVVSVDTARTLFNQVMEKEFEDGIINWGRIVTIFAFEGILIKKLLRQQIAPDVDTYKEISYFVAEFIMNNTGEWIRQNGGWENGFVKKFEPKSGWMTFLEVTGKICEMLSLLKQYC
As to `Cc1c(NC2=C(Cl)C(=O)N(c3ccccc3Cl)C2=O)c(=O)n(-c2ccccc2)n1C`, the EC50 is 6.04 µM.

Regarding `COc1ccc(N2C(=O)C(Cl)=C(Nc3c(C)n(C)n(-c4ccccc4)c3=O)C2=O)cc1`, the EC50 result is “inactive”. For `Cc1c(NC2=C(Cl)C(=O)N(c3ccccc3)C2=O)c(=O)n(-c2ccccc2)n1C`, the EC50 result is “inactive”.

The same assay, now with this note: Bim peptide-Bfl-1 binding, fluorescence, stronger effect = higher value.
Regarding `C#CCOCCOCCOCCNc1nc(N2CCN(C(=O)[C@H](CCCCN)n3cc(CCCC)nn3)CC2)nc(N2CCN(C(=O)[C@H](Cc3ccc(O)cc3)n3cc(CCO)nn3)CC2)n1`, the “percent span (inhibition)” value is “inactive”.

As for `Cc1cc(NC(=O)CSc2nnc(-c3cccnc3)n2Cc2ccccc2)no1`, the “percent span (inhibition)” value was “inactive”. On to `CCCn1c(N2CCN(C)CC2)nc2c1c(=O)[nH]c(=O)n2C`, for which the “percent span (inhibition)” value was “inactive”. Turning to `CCOc1c(Cl)cc(CNc2ccc(N3CCCC3)cc2)cc1OC`, the “percent span (inhibition)” value was “inactive”. As for `Cn1c(=O)c(C(=O)COC(=O)c2cc(-c3ccco3)nc3ccccc23)c(N)n(CC2CC2)c1=O`, the “percent span (inhibition)” value is “inactive”. Regarding `CSc1nnc2ccc(-c3cccs3)nn12`, the “percent span (inhibition)” value was “inactive”. Regarding `C#CCOCCOCCOCCNc1nc(N2CCN(C(=O)[C@H]([C@@H](C)CC)n3cc([C@@H](N)CC(C)C)nn3)CC2)nc(N2CCN(C(=O)[C@H](Cc3cc4ccccc4[nH]3)n3cc([C@@H](N)Cc4ccc(O)cc4)nn3)CC2)n1`, the “percent span (inhibition)” value was “inactive”. Take `O=C(CSc1nnc(-c2ccco2)n1Cc1ccccc1)c1ccccc1`: the “percent span (inhibition)” value was “inactive”. For `COc1ccccc1NC(=O)CSc1ncn(-c2ccccc2)n1`, the “percent span (inhibition)” value is “inactive”. For the compound `Cc1ccc(CNc2ccc3c(c2)OCO3)c(C)c1`, the “percent span (inhibition)” value is “inactive”. On to `CCCC1(C(=O)OCC)NC(c2cc(OC)c(OC)c(OC)c2)C2C(=O)N(CC)C(=O)C21` (stereo unspecified), for which the “percent span (inhibition)” value is “inactive”. On to `Cc1ccc2cc(C)c(Sc3nnnn3-c3ccccc3)nc2c1`, for which the “percent span (inhibition)” value is “inactive”. On the same count and under the same terms, the entry for `Cc1ccc(-c2nnc(Cc3ccc(Cl)cc3)o2)cc1` is “inactive”. For `Cc1ccnc(SCc2cc(=O)c(OC(=O)c3ccc(Cl)c([N+](=O)[O-])c3)co2)n1`, the “percent span (inhibition)” value is “inactive”. As for `Cc1ccc(C(=O)NNC(=O)c2ccc3ncccc3c2)cc1`, the “percent span (inhibition)” value is “inactive”. Same read-out and setting: for `Cc1ccc(CC(=O)OCCNC(=O)c2cccnc2)cc1` the value was “inactive”; for `CCOC(=O)C1=C(CC)Nc2ccccc2N=C1NC(=O)c1ccc(S(=O)(=O)N2CCOCC2)cc1`, “inactive”. Turning to `CN(Cc1ccccc1)C(=O)c1[nH]cnc1C(=O)N[C@@H](CCCCNC(=O)OC(C)(C)C)C(=O)OC(C)(C)C`, the “percent span (inhibition)” value is “inactive”. Still for that read-out and setting: for `Cc1ccc(/C=N/NC(=O)CSc2nnc(-c3ccc(Cl)cc3)n2-c2ccccc2)o1` the value was “inactive”; for `OC(COc1ccc2ccccc2c1)CN1CCCC1` (stereo unspecified), “inactive”. As to `CS(=O)(=O)NN1C(=O)c2ccccc2NC1c1cccc2cccnc12` (stereo unspecified), the “percent span (inhibition)” value is “inactive”. In the case of `NC(=O)c1sc2nc3c(c(-c4ccco4)c2c1N)CCC3`, the “percent span (inhibition)” value is “inactive”. As to `O=C(/C=C/c1ccc(-c2ccccc2[N+](=O)[O-])o1)c1ccc(F)cc1`, the “percent span (inhibition)” value was “inactive”. As to `CCCn1c(SCC(=O)Nc2ccccc2-c2ccccc2)nnc1-c1ccoc1C`, the “percent span (inhibition)” value is “inactive”.

As to `N=C1C(c2nc3ccccc3s2)=C(O)CN1Cc1ccccc1`, the “percent span (inhibition)” value is “inactive”. Turning to `COc1cccc(/C=N/Nc2nn3cnnc3c3ccccc23)c1O`, the “percent span (inhibition)” value was “inactive”.

Consider `Cc1cc(C)nc(/N=C(\N)N2CCc3ccccc32)n1`, for which the “percent span (inhibition)” value was “inactive”. As to `CN(C)S(=O)(=O)N(CC(=O)Nc1ccccc1C(F)(F)F)c1ccccc1`, the “percent span (inhibition)” value was “inactive”. For `CCc1nnc(NS(=O)(=O)c2ccc(N=CC3=C(O)CC(C)(C)CC3=O)cc2)s1`, the “percent span (inhibition)” value is “inactive”. Regarding `Cc1cc[n+]2cc(-c3cccc([N+](=O)[O-])c3)c(-c3cccc([N+](=O)[O-])c3)cc2c1`, the “percent span (inhibition)” value is “inactive”. Still for that read-out and setting: the entry for `COc1ccc(/C=C/C(=O)Nc2sc(Cc3ccccc3)c(C)c2C(N)=O)cc1` is “inactive”; for `N/C(=N\N=C/c1ccc(Br)cc1)N/N=C\c1ccc(Br)cc1` it is “inactive”. With `COc1ccc(CC(=O)Nc2ccccc2Oc2ccccc2)cc1`, the “percent span (inhibition)” value is “inactive”. Turning to `OCCC1CN(Cc2nc3c(s2)CCCC3)CCN1Cc1ccsc1` (stereo unspecified), the “percent span (inhibition)” value is “inactive”. Take `Cc1nn(-c2ccc(Cl)cc2)c(Cl)c1/C=C(\C#N)C(N)=O`: the “percent span (inhibition)” value is “inactive”. On to `COC(=O)c1cc(OC)c(OC)cc1NC(=O)Nc1cccc(C(C)=O)c1`, for which the “percent span (inhibition)” value is “inactive”. On the same count and under the same terms, for `Cc1ccnc(Nc2nc(-c3c(C)nc4sccn34)cs2)c1` the value was “inactive”; for `Cc1cc(C)c2c(N)c3cccc(C)c3nc2n1`, “inactive”. For `CC(=O)NC(=O)Nc1sc(=S)n(C)c1C`, the “percent span (inhibition)” value is “inactive”. On the same count and under the same terms, for `CN(CCCOc1ccccc1Br)Cc1ccccc1` the value was “inactive”; for `O=C(Nc1nccs1)c1ccc(COc2ccc(F)cc2)o1`, “inactive”. For `CNC(=S)N(Cc1cccs1)Cc1cc2ccc(OC)cc2[nH]c1=O`, the “percent span (inhibition)” value was “inactive”.

For `Cc1ccc(C(NC(=O)C(C)C)c2cc([N+](=O)[O-])c3cccnc3c2O)cc1` (stereo unspecified), the “percent span (inhibition)” value was “inactive”. Consider `CC(C)CCN1CCN(Cc2cccc3cccnc23)CC1CCO` (stereo unspecified), for which the “percent span (inhibition)” value is “inactive”. Still for that read-out and setting: the entry for `O=C(Cc1ccc(-c2ccccc2)cc1)NC1CCCC1` is “inactive”; for `CCSc1ncnc2sc(C)c(C)c12` it is “inactive”.

With `COc1ccccc1Oc1ccc2c(c1)C(=O)N(c1ccccc1)C2=O`, the “percent span (inhibition)” value is “inactive”.

Turning to `Cc1ccc(Nc2nc(-c3ccccc3)c(CC(=O)O)s2)cc1`, the “percent span (inhibition)” value is “inactive”.

On to `CN(C)/C=C/C(=O)c1ccc(C(F)(F)F)cc1F`, for which the “percent span (inhibition)” value is “inactive”. Take `Cc1ccc(NC(=O)CSc2nc3ccccc3c(=O)n2CCCN2CCCCC2)cc1Cl`: the “percent span (inhibition)” value was “inactive”. For `CCOc1ccc2nc(SCC(=O)N3c4ccccc4Sc4ccccc43)c(C#N)cc2c1`, the “percent span (inhibition)” value is “inactive”.

Consider `CCN1CCN(c2cc(C)c3cc(NC(=S)N4CCCCC4)ccc3n2)CC1`, for which the “percent span (inhibition)” value is “inactive”.

Take `COc1cc(/C=C2\SC(=S)NC2=O)ccc1OS(=O)(=O)c1ccccc1`: the “percent span (inhibition)” value is “inactive”. Take `CN(C)CCNC(=O)C(=O)C1C(=O)Nc2ccccc21` (stereo unspecified): the “percent span (inhibition)” value is “inactive”. As for `CC(=O)Nc1ccc2nc(CN3CCN(CC(C)C)C(CCO)C3)ccc2c1` (stereo unspecified), the “percent span (inhibition)” value was “inactive”. For the compound `Cc1ccc(S(=O)(=O)N(C)CC(=O)N2CCc3ccccc32)cc1`, the “percent span (inhibition)” value was “inactive”. On to `O=C(Nc1cccc(-c2ccc3nncn3n2)c1)c1ccco1`, for which the “percent span (inhibition)” value is “inactive”.

Take `O=C(OCc1nc2ccccc2[nH]1)C12CC3CC(CC(C3)C1)C2`: the “percent span (inhibition)” value was “inactive”. Consider `CCOc1ccccc1-n1c(=O)c2ccccc2c2ccccc2c1=O`, for which the “percent span (inhibition)” value is “inactive”. For `O=C(c1ccccc1NS(=O)(=O)c1ccc(Br)s1)N1CCCC1`, the “percent span (inhibition)” value is “inactive”. Regarding `CN(Cc1cccs1)C(=O)CCc1c[nH]c2ccccc12`, the “percent span (inhibition)” value is “inactive”. Same read-out and setting: for `COC(=O)/C(=C/c1ccc(F)cc1)NC(C)=O` the value was “inactive”. Take `CCOc1ccc(NCc2ccccc2OCc2cccc(F)c2)cc1`: the “percent span (inhibition)” value is “inactive”.

For the compound `COc1ccc(NC(=O)c2sccc2SCc2cccc(C(F)(F)F)c2)cc1`, the “percent span (inhibition)” value is “inactive”. Turning to `Cc1ccc(-c2cc(C(=O)Nc3cccnc3)c3ccccc3n2)o1`, the “percent span (inhibition)” value was “inactive”.

`Cc1cc(NC(=O)CCCC(=O)NCc2ccccc2)no1`: the “percent span (inhibition)” value was “inactive”. Take `Cc1ccccc1OCC(=O)N/N=C/c1ccccn1`: the “percent span (inhibition)” value is “inactive”. For the compound `Cc1cc(C)nc(/N=c2/ssnc2Cl)c1`, the “percent span (inhibition)” value was “inactive”.

As for `COc1ccc(-n2c(SCC(=O)Nc3ccc(C(=O)O)cc3)nnc2-c2cccs2)cc1`, the “percent span (inhibition)” value is “inactive”. Consider `COc1cccc2c(SCC(=O)N/N=C/c3ccc(O)cc3O)cc(C)nc12`, for which the “percent span (inhibition)” value is “inactive”. Consider `COc1ccc(S(=O)(=O)NCCSc2ccc(Cl)cc2)cc1OC`, for which the “percent span (inhibition)” value was “inactive”.

Consider `COC(=O)c1ccc(C)c(NC(=O)CCNC(=O)c2ccc([N+](=O)[O-])cc2)c1`, for which the “percent span (inhibition)” value was “inactive”. Consider `COc1cc2[nH]c(=S)nc(NCCCOC(C)C)c2cc1OC`, for which the “percent span (inhibition)” value is “inactive”. In the case of `CC(C)c1ccc(/C=N/NC(=O)c2ccccc2Cl)cc1`, the “percent span (inhibition)” value was “inactive”. Same read-out and setting: the entry for `O=C1NC(=S)S/C1=C/c1ccc(N2CCOCC2)o1` is “inactive”. Turning to `Cc1ccc(C(=O)N/N=C2/NC(=O)CC(C(=O)Nc3ccccc3)S2)cc1` (stereo unspecified), the “percent span (inhibition)” value is “inactive”. For the compound `O=C1/C(=C/c2cccs2)Sc2ccccc21`, the “percent span (inhibition)” value was “inactive”. For `O=C(COC(=O)c1ccccn1)NC1CCCCC1`, the “percent span (inhibition)” value was “inactive”. In the case of `O=C(Cn1cncc1-c1ccc([N+](=O)[O-])cc1)Nc1ccccc1F`, the “percent span (inhibition)” value was “inactive”. As for `CNc1nc2ccccc2n1/N=C/c1cccc(OC)c1OC`, the “percent span (inhibition)” value is “inactive”.

In the case of `Cc1ccc(-n2c(CSc3nc(C)cc(C)n3)nnc2SCC(=O)NCc2ccco2)cc1`, the “percent span (inhibition)” value is “inactive”. Consider `CC(C)Cc1cc(-c2ccco2)c(C#N)c(N)n1`, for which the “percent span (inhibition)” value was “inactive”.

`COC(=O)c1cccc(-n2c(C)cc(C=O)c2C)c1`: the “percent span (inhibition)” value was “inactive”.
